# Experimental data published in patent US12473332B2, “Modified peptides and associated methods of use” (Advanced Technologies For Novel Therapeutics, LLC, priority 2019, dated 2025).
# Where no end group is shown, it is not given here.
# Columns and labels:
# panel of 32 kinases = test: in vitro kinase selectivity panel of 32 kinases; format: biochemical; details: at IC50 for AKT1 (0.1 μM)
# Procedure: To test the specificity/selectivity of ZaTa as the inhibitor of AKT1 versus the other major kinases, a series of in vitro kinase assays was performed at IC50 for AKT1 and at ten times higher concentrations. A panel of the following 32 kinases was first tested in vitro using the active form of each kinase and a specific substrate: AKT2, AKT3, PKA, PKCα, PKCγ, PI3Kβ, PI3Kδ, PI3Kγ, SGK, PAK2, PAK3, SAPK2/p38, Abl, CaMKII, CDK1/cyclinB, CDK5/p35, CK1, CK2, CSK, GSK3α, GSK3β, JNK1α1, MAPK1, p70S6K, PDGFRα, PDGFRβ, PDK1, PKG1α, TrkB, JAK2, JAK3, and Syk. […] However, at ten times higher concentration, ZaTa inhibited AKT2 (63%), PI3Kδ (72%), p70S6K (64%), SGK (73%), PAK3 (83%), JAK3 (79%), TrkB (84%), and Abl (42%). To confirm the in vitro inhibitory effect on these kinases in cells, a cell-based assay was used to determine the effect of labeled ZaTa on the phosphorylation levels of well-known intracellular substrates for each kinase (Zipfel, et al. (2004) Curr. Biol. 14:1222-1231; Wang, et al. (2003) Arch. Biochem. Biophys. 410:7-15; King, et al. (1998) Nature 396:180-183; Rangone, et al. (2004)Eur. J. Neurosci. 19:273-279; Middlemas, et al. (1994)J. Biol. Chem. 269:5458-5466; Huang, et al. (1999) J. Biol. Chem. 274:7870-7878). The results of this cell-based kinase assay confirmed that ZaTa could inhibit p70S6K besides AKT. […]
# Abl = target: T1, Abl (Mus musculus, UniProt P00520); test: stereotactic injection into brain, western blot with phospho-specific antibodies; format: in vivo; details: vs DMSO hemisphere
# T1 construct: from tissue; host or cells: brain hemisphere, in vivo
# Procedure: (§1) To analyze in vivo selectivity, ZaTa was injected into one hemisphere and DMSO in the other hemisphere, as above, and a series of western blot analyses was performed with phospho-specific antibodies which recognize a phosphorylated substrate or each one of the kinases that ZaTa inhibited at higher concentrations in vitro. […] Given the high functional and structural homology between p70S6K and AKT, the in vivo inhibitory effect of ZaTa on p70S6K was contemplated. Furthermore, the in vivo effect of ZaTa on the phosphorylation levels of substrates for PKA, PKC, CDKs using phospho-specific antibodies recognizing the phosphorylated consensus sites of these kinases was analyzed.
# p70S6K = target: T2, p70S6K (Mus musculus, UniProt Q8BSK8); test: as above; format: in vivo; details: vs DMSO hemisphere
# T2 construct: from tissue; host or cells: brain hemisphere, in vivo
# Procedure: as §1
# N2a cells = test: MTT-based proliferation assay; format: cell-based
# Procedure: AKT affects a network that positively regulates G1/S cell cycle progression through several mechanisms that involve the expression and subcellular localization of the CDK inhibitor p27^Kip1 (Blain and Massague (2002) Nat. Med. 8:1076-1078; Liang, et al. (2002) supra; Shin, et al. (2002) supra; Viglietto, et al. (2002) supra). Based on these studies, the effect of ZaTa peptide on cell proliferation was assessed. […] Capturing live images of cultured N2a cells in the presence of different concentrations of the ZaTa peptide confirmed an obvious reduction in the number of dividing cells.
# Based on the importance of the C-terminal arm of ZaTa for its inhibitory action on AKT, it was determined whether the free hydroxyl groups on residues Thr-8, Thr-10 (equivalent to Thr-197 in full-length PKAc), Thr-14 and Tyr-17 were important for the biological activity of this peptide. Mutants of ZaTa peptide were synthesized by replacing Thr-8 or Thr-10 residues with Asp (ZaTa^T8D and ZaTa^T10D, respectively) as an amino acid with a negatively charged side chain. Mutants of ZaTa with the hydrophilic positively charged amino acid Arg at either position Thr-14 or Tyr-17 (ZaTa^T14R and ZaTa^Y17R, respectively) were also synthesized. […] The inhibitory effect of ZaTa peptide on cell proliferation was reversible, to a large extent, after the removal of ZaTa treatment.
# [1] = trypan blue staining, live and dead cell count; format: cell-based; details: 12 to 72 hours
# From the text: Therefore, in addition to capturing live images, cells were stained with trypan blue at different time intervals following treatment with ZaTa and counted by a light microscope using a hemocytometer.
# AKT = target: T3, AKT (Mus musculus, UniProt P31750); test: stereotactic injection into brain striatum, phosphorylation of AKT substrates; format: in vivo; details: vs DMSO hemisphere
# T3 construct: from tissue; host or cells: brain striatum, in vivo
# Procedure: After the stereotactic injection of ZaTa peptide, a decrease in the phosphorylation level of AKT substrates in the striatum of a brain hemisphere was observed as compared to the other hemisphere that was injected with DMSO as the vehicle. […] As a specific substrate, the phosphorylation level of GSK-3β at Ser-9 was also evaluated. […] The decrease was specific to the AKT phosphorylation site on GSK-3β at Ser-9, since a change in the phosphorylation level of GSK-3β at Tyr-216 or GSK-3α at Tyr-279 was not observed. Moreover, the in vivo reduction of the phosphorylation of AKT substrates was more obvious at the injection site, since a significant change in the phosphorylation of AKT substrates in the frontal cortex or cerebellum between the two hemispheres was not observed.
# The phenotypic consequence of disrupting the AKT-PKAc complex was also determined. ZaTa peptide was injected into the striatum of one hemisphere of the brain and DMSO, as vehicle, was injected into the other brain hemisphere of an adult C57BL/6 mouse under anesthesia. The brain was removed and dissected. Equal protein amounts from each hemisphere were subjected to immunoprecipitation by an anti-AKT antibody. […] To compare PKAc protein levels in the ZaTa- and vehicle-treated brain hemisphere lysates, western blot analysis was conducted.
# PKAc = PKAc (Homo sapiens, UniProt P17612); test: independent kinase assays on PKAc catalytic activity; format: biochemical
# T3 sequence (P31750 whole entry): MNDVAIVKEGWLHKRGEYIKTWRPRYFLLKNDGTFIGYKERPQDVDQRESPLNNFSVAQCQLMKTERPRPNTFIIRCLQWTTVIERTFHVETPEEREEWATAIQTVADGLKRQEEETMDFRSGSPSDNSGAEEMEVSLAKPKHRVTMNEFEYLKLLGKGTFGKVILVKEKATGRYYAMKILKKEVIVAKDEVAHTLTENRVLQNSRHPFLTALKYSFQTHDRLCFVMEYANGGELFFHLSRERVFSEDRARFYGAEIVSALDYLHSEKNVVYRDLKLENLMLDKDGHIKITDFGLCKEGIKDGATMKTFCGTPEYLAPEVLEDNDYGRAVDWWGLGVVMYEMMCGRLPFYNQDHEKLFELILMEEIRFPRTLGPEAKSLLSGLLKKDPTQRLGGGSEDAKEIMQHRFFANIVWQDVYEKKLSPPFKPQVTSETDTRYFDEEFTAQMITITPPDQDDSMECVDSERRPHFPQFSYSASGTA
# T1 sequence (P00520 whole entry): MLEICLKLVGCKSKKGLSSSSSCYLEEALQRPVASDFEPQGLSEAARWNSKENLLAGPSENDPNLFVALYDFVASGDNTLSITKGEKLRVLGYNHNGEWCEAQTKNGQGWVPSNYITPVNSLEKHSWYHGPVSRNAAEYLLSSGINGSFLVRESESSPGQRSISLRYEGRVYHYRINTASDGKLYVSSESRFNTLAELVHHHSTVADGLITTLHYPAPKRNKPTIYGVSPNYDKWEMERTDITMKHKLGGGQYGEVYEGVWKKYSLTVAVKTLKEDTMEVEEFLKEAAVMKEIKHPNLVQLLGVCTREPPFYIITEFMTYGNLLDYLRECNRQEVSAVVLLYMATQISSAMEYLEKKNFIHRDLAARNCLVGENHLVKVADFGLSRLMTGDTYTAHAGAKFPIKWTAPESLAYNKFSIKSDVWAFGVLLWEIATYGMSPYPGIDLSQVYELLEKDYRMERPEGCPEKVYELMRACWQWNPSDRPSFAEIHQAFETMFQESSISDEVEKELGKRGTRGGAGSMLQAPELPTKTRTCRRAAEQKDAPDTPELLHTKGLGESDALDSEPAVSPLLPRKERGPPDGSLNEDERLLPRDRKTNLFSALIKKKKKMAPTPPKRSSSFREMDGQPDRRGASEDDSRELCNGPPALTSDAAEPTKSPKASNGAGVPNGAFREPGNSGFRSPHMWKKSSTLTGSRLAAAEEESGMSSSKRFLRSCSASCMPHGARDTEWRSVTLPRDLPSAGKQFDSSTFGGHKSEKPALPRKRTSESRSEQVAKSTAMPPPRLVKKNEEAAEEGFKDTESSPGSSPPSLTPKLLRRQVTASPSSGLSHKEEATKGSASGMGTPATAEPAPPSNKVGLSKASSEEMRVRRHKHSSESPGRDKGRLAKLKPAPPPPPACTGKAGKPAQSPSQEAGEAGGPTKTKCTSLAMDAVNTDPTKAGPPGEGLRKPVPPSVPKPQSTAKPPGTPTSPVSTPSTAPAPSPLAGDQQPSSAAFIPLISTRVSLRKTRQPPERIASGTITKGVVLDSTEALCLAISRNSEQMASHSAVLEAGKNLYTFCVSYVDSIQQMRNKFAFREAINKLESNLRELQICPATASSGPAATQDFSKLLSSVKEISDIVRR
# T2 sequence (Q8BSK8 whole entry): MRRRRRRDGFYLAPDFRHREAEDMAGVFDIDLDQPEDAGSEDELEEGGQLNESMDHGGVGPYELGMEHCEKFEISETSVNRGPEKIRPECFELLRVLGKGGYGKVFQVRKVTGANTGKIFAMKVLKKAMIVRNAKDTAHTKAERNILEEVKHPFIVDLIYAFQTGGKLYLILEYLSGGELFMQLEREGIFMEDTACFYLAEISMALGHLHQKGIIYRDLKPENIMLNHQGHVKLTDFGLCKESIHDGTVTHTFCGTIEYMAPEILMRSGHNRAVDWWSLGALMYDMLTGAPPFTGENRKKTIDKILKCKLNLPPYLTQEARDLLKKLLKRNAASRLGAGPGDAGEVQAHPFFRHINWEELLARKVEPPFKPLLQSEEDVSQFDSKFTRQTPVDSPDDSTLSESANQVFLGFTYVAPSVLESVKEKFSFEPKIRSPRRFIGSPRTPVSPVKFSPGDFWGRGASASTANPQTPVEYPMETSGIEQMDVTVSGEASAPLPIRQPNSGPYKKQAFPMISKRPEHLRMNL
sequence,measurement,setting,value
"AKRVKGRTWTLCGTPEY [Peptide 53, A-K-R-V-K-G-R-T-W-T-L-C-G-T-P-E-Y]",inhibition of panel kinases,panel of 32 kinases,no significant inhibition
same,in vivo inhibition of Abl,Abl,weaker in vivo inhibition
same,in vivo inhibition of p70S6K,p70S6K,potent in vivo inhibition
same,number of live cells after removal of treatment (reversibility),"N2a cells; 24 hours after removal of 10 μM, vs DMSO vehicle",no significant differences in the number of live cells
same,number of live cells,N2a cells; MTT,dose-dependent decrease in the number of live cells
same,dose causing a significant decrease in the number of live cells,N2a cells; doses as low as,2 µM
same,number of dead cells,[1],a significant increase in the number of dead cells was not seen
same,phosphorylation level of AKT substrates in vivo,AKT; one hour after stereotactic injection,significant decrease in the phosphorylation level of AKT substrates
same,phosphorylation level of GSK-3β at Ser-9 in vivo,AKT; stereotactic injection,specific reduction
same,inhibitory effect on catalytic activity of PKAc,PKAc,did not exhibit any inhibitory effect
